Source: patent US5004758A, “Water soluble camptothecin analogs useful for inhibiting the growth of animal tumor cells” (priority 1988, dated 1991)
Where a name gives a salt, the structure may show the parent alone. Read-outs that look alike come from different tables or passages of the source.

How the values were obtained:
SW-620 = assay: Cytotoxicity to tumor cells in culture; type: cell-based; settings: Homo sapiens
Procedure: (§1) The cell lines are used and maintained as monolayer cultures in Minimal Essential Media (Grand Island Biological Co., Grand Island, N.Y.) supplemented with 10% fetal calf serum in a 5% CO2 humidified incubator at 37° C. Various concentrations of a Formula (I) compound under sterile conditions were allowed to react for 2 hours followed by aspiration of medium or were exposed continuously. Plates are incubated for 7 days at 37° C. in a CO2 incubator. Medium was aspirated and cells were fixed and stained with ethanol and Geisma stain. The surviving cell population was determined by scanning the plates with an image analyzer. The percent inhibition of proliferation was determined relative to cells incubated in the absence of drug and the 50 percent inhibitory concentration (IC50) was determined by interpolation.

WIDR = assay: Cytotoxicity to tumor cells in culture; type: cell-based; settings: Homo sapiens
Procedure: as §1

SKCO-1 = assay: Cytotoxicity to tumor cells in culture; type: cell-based; settings: Homo sapiens
Procedure: as §1

L1210 Leukemia = assay: Cytotoxicity to tumor cells in culture; type: cell-based; settings: Mus musculus, 2 hr exposure
Procedure: as §1

DLD-1 = assay: Cytotoxicity to tumor cells in culture; type: cell-based; settings: Homo sapiens
Procedure: as §1

B16 Melanoma = assay: Cytotoxicity to tumor cells in culture; type: cell-based; settings: Mus musculus, continuous exposure
Procedure: as §1

K12/Tr Colon Carcinoma = assay: Cytotoxicity to tumor cells in culture; type: cell-based; settings: K12/Tr rat colon carcinoma
Procedure: as §1

HT-29 = assay: Cytotoxicity to tumor cells in culture; type: cell-based; settings: Homo sapiens
Procedure: as §1

LOVO = assay: Cytotoxicity to tumor cells in culture; type: cell-based; settings: Homo sapiens
Procedure: as §1

CACO-2 = assay: Cytotoxicity to tumor cells in culture; type: cell-based; settings: Homo sapiens
Procedure: as §1

SW-948 = assay: Cytotoxicity to tumor cells in culture; type: cell-based; settings: Homo sapiens
Procedure: as §1

[1] = test system: sc mammary adenocarcinoma 16/c; assay: in vivo; design: species or system mouse; settings: mouse, in vivo
Excerpt: (§2) The inoculum varies with the tumor.

in vivo = assay: in vivo; design: species or system mouse; settings: mouse, in vivo, ip
Excerpt: as §2

L1210 leukemia cells = assay: cells; type: cell-based, mouse; settings: Mus musculus, L1210, read-out: In Vitro Activity IC50
Procedure: Cells were exposed continuously upon cloning into medium containing 0.2 percent Noble agar. After incubation at 37° C. in a CO2 incubator for 3 days, colonies were stained with viable cell specific formazan stain and, 24 hours later, were enumerated by a colony counter (Biotran II, New Brunswick Scientific Co., Edison, N.J.) adjusted to identify colonies of more than 50 cells. The concentration which reduced cloning efficiency by 50 percent IC50) was determined by interpolation.

iv Lewis lung carcinoma = assay: iv-implanted Lewis lung carcinoma in mice; type: in vivo, mouse; settings: for Increase in lifespan (ILS) / Long-Term Survivors: iv Lewis lung; for Increase in lifespan (ILS): B/ip (Days 1, 5, 9 and 13); for Long-Term Survivors: B/ip
Excerpt: (§3) Tumors used in these studies P388 leukemia, L1210 leukemia and Lewis lung carcinoma--are maintained by serial transplantation in syngeneic strains of mice, DBA/2 for the leukemias and C57B1/6 for Lewis lung carcinoma. The leukemias are serially transplanted i.p. as ascites cell suspensions while the Lewis lung carcinoma is serially transplanted as a s.c. solid tumor.
(§4) For therapeutic trials, tumors were aseptically removed from donor mice and prepared as suspensions for implantation into test animals which for each tumor are syngeneic female F1 hybrid B6D2F1 mice (C57B1/6×DBA/2). The inoculum level varies with the type of tumor: P388 leukemia is inoculated at 10^6 cells per mouse, L1210 leukemia at 10^5 or 10^6 cells per mouse, and Lewis lung carcinoma at 0.25 ml of a 10 percent (w:v) brei. […] After tumor inoculation, mice are randomized to treatment groups of 6 to 8 mice each. In each experiment, there are three groups of untreated control mice.
(§5) Drugs are dissolved or suspended in appropriate aqueous vehicles and given i.p. or i.v. on various treatment schedules over a range of dosage levels. Animals are housed in shoebox cages and monitored daily for mortality for 30 (L1210), 45 (P388) or 60 (Lewis lung) days.

sc ADJ-PC6 plasmacytoma = assay: sc-implanted ADJ-PC6 plasmacytoma in mice; type: in vivo, mouse; settings: for Mice without Palpable Tumors: sc ADJ-PC6, B/ip
Procedure: Inhibition of tumor growth (TGI) is based on mean tumor volume of groups of 7 or 8 mice relative to untreated controls. Tumors were measured between Days 12 and 19 (except Day 24 for Colon 51 and Day 31 for Colon 38).
Tumors used in these studies are maintained by serial transplantation in syngeneic strains of mice C57BL/6 for Lewis lung carcinoma, B16 melanoma and its F10 subline, M5076 sarcoma and colon adenocarcinoma 38; BALB/c for colon carcinoma 26, ADJ-PC6 plasmacytoma Madison lung carcinoma and colon adenocarcinoma 51, C3H for mammary adenocarcinoma 16/c. With the exception of the M5076 sarcoma, which is maintained as a i.p ascites cell suspension, all of the tumors were serially transplanted as s.c. solid tumors.
For therapeutic trials, tumors were aseptically removed from donor mice and prepared for implantation s.c. into test animals. The test animals for Lewis lung carcinoma, B16 melanoma and its F10 subline, M5076 sarcoma and colon adenocarcinoma 38 are syngeneic female F1 hybrid B6D2F mice (C57B1/6×DBA/2). ADJ-PC6 plasmacytoma and colon carcinoma 26 are evaluated in female BALB/c mice. Madison lung carcinoma and colon adenocarcinoma 51 are evaluated in syngeneic female F1 hybrid CD2F1 mice (BALB/c×DBA/2). Mammary adenocarcinoma 16/c is evaluated in female C3H mice. The inoculum varies with the tumor. Colon adenocarcinomas 38 is implanted as 2 mm fragments by trochar. M5076 sarcoma and ADJ-PC6 plasmacytoma are implanted as cell suspensions at 5×10^6 and 2×10^6 cells per mouse, respectively. Colon carcinoma 26, colon adenocarcinoma 51, Lewis lung carcinoma, Madison lung carcinoma and B16 melanoma and its F10 subline are implanted as tumor breis prepared as described above in a volume of 0.5 ml. The brei concentration was 10 percent (w:v) except for colon carcinoma 26 for which the brei concentration was 5 percent (w:v). After tumor inoculation, mice are randomized to treatment groups of 7 or 8 mice. In each experiment, there are three groups of untreated control mice.
Drugs are dissolved or suspended in appropriate aqueous vehicles and given by a variety of routes of administration and treatment schedules over a range of dosage levels. Animals are housed in shoebox cages and are monitored daily for mortality. […] Time for tumor measurement is dependent on the different rates of tumor growth of the different tumors: the most rapidly growing tumors such as the Lewis and Madison lung tumors, B16 melanoma and its F10 subline were measured between Days 12 and 16. The slower growing tumors were measured at later time points--17 days for M5076 sarcoma, 16 or 19 days for mammary adenocarcinoma 16/c, 19 days for ADJ-PC6 plasmacytoma and colon carcinoma 26, 24 days for colon adenocarcinoma 51, and 31 days for colon adenocarcinoma 38.

ip B16 melanoma = settings: mouse, in vivo
Excerpt: (§6) Tumors used in these studies--P388 leukemia and its doxorbicin--and mitoxanrone-resistant sublines, L1210 leukemia, B16 melanoma, B16 melanoma/F10 subline, M5076 sarcoma and colon carcinoma 26--are maintained by serial transplantation in syngeneic strains of mice. For the leukemias, these tumors are maintained in DBA/2 mice. The M5076 sarcoma, the B16 melanoma and its F10 subline are maintained in C57B1/6 mice and the colon sarcinoma 26 is maintained in BALB/c mice. The leukemias and the M5076 sarcoma are serially transplanted i.p. as ascites cell suspensions while the B16 melanoma lines and the colon carcinoma 26 are serially transplanted as s.c. solid tumors.
(§7) For therapeutic trials, tumors are aseptically removed from donor mice and prepared as suspensions for implantation ip into test animals. The test animals for the colon carcinoma 26 are female BALB/c mice (20-25 gm). The test animals for the other tumor models are syngeneic female F1 hybrid B6D2F1 mice (C57B1/6 x DBA/2). The inoculum level varies with the type of tumor: P388 leukemia is inoculated at 10^6 cells per mouse, L1210 leukemia at 10^5 or 10^6 cells per mouse, M5076 sarcoma at 5×10^6 cells per mouse. For implantation of the B16 melanoma lines and the colon carcinoma 26, s.c. tumors from donor mice are minced and homogenized in loose fitting teflon glass homogenizer to give a tumor brei. The inoculum levels are 0.5 ml of a 10 percent (w:v) brei of the B16 melanoma lines and 0.5 ml of a 5 percent (w:v) brei of colon carcinoma 26. After tumor inoculation, mice randomized to treatment groups comprised of 6-8 mice each. In each experiment, there are three groups of untreated control mice. Drugs are dissolved or suspended in appropriate aqueous vehicles and given by a variety of routes and schedules of administration over a range of dose levels. Animals are housed in shoebox cages and are monitored daily for mortality for 30 (L1210), 45 (P388) or 60 (B16, M5076, colon 26) days.

P388/Doxorubicin = assay: ip P388/Doxorubicin multidrug resistant subline in mice; settings: for ILS / NCK (net tumor cell kill): P388/Doxorubicin, ip, Days 1 and 5
Procedure: (§8) Increase in lifespan (ILS) is based on median survival time of groups of 6 mice. Net tumor cell kill (NCK) is calculated from median survival time by standard methods, since survival time is a linear function of the log tumor cell burden.
For the leukemias, these tumors are maintained in DBA/2 mice. […] The leukemias and the M5076 sarcoma are serially transplanted i.p. as ascites cell suspensions while the B16 melanoma lines and the colon carcinoma 26 are serially transplanted as s.c. solid tumors.
For therapeutic trials, tumors are aseptically removed from donor mice and prepared as suspensions for implantation ip into test animals. […] The test animals for the other tumor models are syngeneic female F1 hybrid B6D2F1 mice (C57B1/6 x DBA/2). The inoculum level varies with the type of tumor: P388 leukemia is inoculated at 10^6 cells per mouse, L1210 leukemia at 10^5 or 10^6 cells per mouse, M5076 sarcoma at 5×10^6 cells per mouse. […] After tumor inoculation, mice randomized to treatment groups comprised of 6-8 mice each. In each experiment, there are three groups of untreated control mice. Drugs are dissolved or suspended in appropriate aqueous vehicles and given by a variety of routes and schedules of administration over a range of dose levels. Animals are housed in shoebox cages and are monitored daily for mortality for 30 (L1210), 45 (P388) or 60 (B16, M5076, colon 26) days.

ip P388 leukemia = settings: mouse, in vivo, ip
Procedure: as §8
Animals were implanted ip with 10^6 cells. Increase in lifespan (ILS) is based on median survival time of groups of 6 mice relative to untreated controls. Long-term survivors were tumor-free on Day 45.
as §6, §7

iv L1210 leukemia = settings: mouse, in vivo
Excerpt: Animals were inoculated iv with 10^6 cells. Increase in lifespan (ILS) is based on median survival time of groups of 6 mice relative to untreated controls.
The protocols utilized for the evaluation of the antitumor activity of Formula (I) compounds are well established and widely utilized by those skilled in the art of assessing the activity of drugs in preclinical tumor models. These studies generally follow the protocols established by the National Cancer Institute as described by Geran et al., Cancer Chemotherapy Reports, Part 3, Vol. 3, 1-103, 1972.
as §3, §4, §5

[2] = 2 hr exposure, 7-day incubation, read-out: IC50 2 Hr. Exposure
[3] = 168 h, continuous 7-day exposure, read-out: IC50 Continuous Exposure

With `CC[C@@]1(O)C(=O)OCc2c1cc1n(c2=O)Cc2cc3c(CN(C)C)c(O)ccc3nc2-1` [Compound No. 1S, (20 S) 9-Dimethylaminomethyl-10-hydroxycamptothecin Acetate Salt] the IC50 (SW-620; [2]) was 0.12 µg/mL, the IC50 (SW-620; [3]) was 0.0065 µg/mL and the IC50 (WIDR; [2]) was 2.1 µg/mL. For the same molecule, the IC50 (WIDR; [3]) was 0.025 µg/mL, the IC50 (SKCO-1; SK-CO-1, 2 hr exposure, 7-day incubation, read-out: IC50 2 Hr. Exposure) was 0.23 µg/mL and the IC50 (SKCO-1; SK-CO-1, 168 h, continuous 7-day exposure, read-out: IC50 Continuous Exposure) was 0.0039 µg/mL. It also gave an IC50 (L1210 Leukemia) of 1.4 µg/mL, an IC50 (DLD-1; [2]) of 0.44 µg/mL and an IC50 (DLD-1; [3]) of 0.015 µg/mL. It also gave an IC50 (B16 Melanoma) of 0.62 µg/mL, an IC50 (K12/Tr Colon Carcinoma; 2 hr exposure, read-out: IC50 2 Hr. Exposure) of 3.9 µg/mL and an IC50 (K12/Tr Colon Carcinoma; continuous exposure, read-out: IC50 Continuous Exposure) of 0.084 µg/mL. It also gave an IC50 (HT-29; [2]) of 0.58 µg/mL, an IC50 (HT-29; [3]) of 0.016 µg/mL and an IC50 (LOVO; [2]) of 0.58 µg/mL. It also gave an IC50 (LOVO; [3]) of 0.0097 µg/mL, an IC50 (CACO-2; [2]) of 1.7 µg/mL and an IC50 (CACO-2; [3]) of 0.075 µg/mL. For the same molecule, the IC50 (SW-948; SW948, 2 hr exposure, 7-day incubation, read-out: IC50 2 Hr. Exposure) was 0.26 µg/mL, the IC50 (SW-948; SW948, 168 h, continuous 7-day exposure, read-out: IC50 Continuous Exposure) was 0.016 µg/mL and the “Mice without Palpable Tumors” value ([1]; 5 mg/kg) was 2/8. The “Tumor growth inhibition (TGI)” value ([1]; 5 mg/kg) was 61%, the “Mice without Palpable Tumors” value ([1]; 10 mg/kg) was 5/8 and the “Tumor growth inhibition (TGI)” value ([1]; 20 mg/kg) was “toxic”. The “Mice without Palpable Tumors” value ([1]; […]) was 1/8, the “Increase in Lifespan (ILS) or Inhibition of Tumor Growth (TGI)” value (“Increase in Lifespan (ILS) or Inhibition” for short) ([1]; sc) was 96 % TGI and the “Tumor growth inhibition (TGI)” value ([1]; sc) was 73. The MTD (in vivo) was 10 mg/kg, the IC50 (L1210 leukemia cells) was 56 nM and the “Increase in Lifespan (ILS) or Inhibition” value (iv Lewis lung carcinoma; iv Lewis Lung Carcinoma, optimal doses and optimal schedules, Acetate Salt) was “Curative”. The “Increase in lifespan (ILS)” value (iv Lewis lung carcinoma; 3.2 mg/kg/injection) was 16%, the “Increase in lifespan (ILS)” value (iv Lewis lung carcinoma; 5.4 mg/kg/injection) was 37% and the “Increase in lifespan (ILS)” value (iv Lewis lung carcinoma; 15 mg/kg/injection) was > 200%. The “Increase in lifespan (ILS)” value (iv Lewis lung carcinoma; 25 mg/kg/injection) was “toxic”, the “Long-Term Survivors” value (iv Lewis lung carcinoma; 9 mg/kg/injection) was 1/7 and the “Long-Term Survivors” value (iv Lewis lung carcinoma; 15 mg/kg/injection) was 7/7. The “inhibition of tumor growth at four dose levels at or below the maximally tolerated dose” value (sc ADJ-PC6 plasmacytoma; mouse, in vivo) was > 90, the “long term tumor-free survivors at each of the top three dose levels” value (sc ADJ-PC6 plasmacytoma; mouse, in vivo) was 1 of 8 and the “Tumor growth inhibition (TGI)” value (sc ADJ-PC6 plasmacytoma; mouse, in vivo, 3.2 mg/kg) was 93%. The “Tumor growth inhibition (TGI)” value (sc ADJ-PC6 plasmacytoma; mouse, in vivo, 5.4 mg/kg) was 92%, the “long-term, tumorfree survivors” value (sc ADJ-PC6 plasmacytoma; mouse, in vivo, 5.4 mg/kg) was 1/8 and the “Tumor growth inhibition (TGI)” value (sc ADJ-PC6 plasmacytoma; mouse, in vivo, 9 mg/kg) was 100%. For the same molecule, the “long-term, tumorfree survivors” value (sc ADJ-PC6 plasmacytoma; mouse, in vivo, 9 mg/kg) was 1/8, the “long-term, tumorfree survivors” value (sc ADJ-PC6 plasmacytoma; mouse, in vivo, 15 mg/kg) was 1/8 and the “Tumor growth inhibition (TGI)” value (sc ADJ-PC6 plasmacytoma; mouse, in vivo, 25 mg/kg) was “toxic”. For the same molecule, the “Increase in Lifespan (ILS) or Inhibition” value (sc ADJ-PC6 plasmacytoma; mouse, in vivo, sc) was 100 % TGI, the “Mice without Palpable Tumors” value (sc ADJ-PC6 plasmacytoma; 3.2 mg/kg/injection) was 3/8 and the “Mice without Palpable Tumors” value (sc ADJ-PC6 plasmacytoma; 5.4 mg/kg/injection) was 4/8. The “Mice without Palpable Tumors” value (sc ADJ-PC6 plasmacytoma; 9 mg/kg/injection) was 8/8, the “Mice without Palpable Tumors” value (sc ADJ-PC6 plasmacytoma; 15 mg/kg/injection) was 7/7 and the ILS (ip B16 melanoma) was 130. The “Increase in Lifespan (ILS) or Inhibition” value (ip B16 melanoma; ip) was 152 % ILS, the “Increase in lifespan (ILS)” value (ip B16 melanoma; ip, 3.2 mg/kg) was 43% and the “Increase in lifespan (ILS)” value (ip B16 melanoma; ip, 5.4 mg/kg) was 52%. The “Increase in lifespan (ILS)” value (ip B16 melanoma; ip, 25 mg/kg) was “toxic”, the ILS (P388/Doxorubicin; 3.2 mg/kg) was 14% and the “NCK (net tumor cell kill)” value (P388/Doxorubicin; 3.2 mg/kg) was 0 log. For the same molecule, the ILS (P388/Doxorubicin; 5.4 mg/kg) was 33%, the “NCK (net tumor cell kill)” value (P388/Doxorubicin; 5.4 mg/kg) was 0 log and the ILS (P388/Doxorubicin; 9 mg/kg) was 90%. The “NCK (net tumor cell kill)” value (P388/Doxorubicin; 9 mg/kg) was 2.2 log, the ILS (P388/Doxorubicin; 15 mg/kg) was 176% and the “NCK (net tumor cell kill)” value (P388/Doxorubicin; 15 mg/kg) was 6.0 log. The ILS (P388/Doxorubicin; 25 mg/kg) was “toxic”, the “sensitivity / resistance of subline” value (P388/Doxorubicin; P388/doxorubicin in mice) was “retained sensitivity” and the “Increase in Lifespan (ILS) or Inhibition” value (ip P388 leukemia) was “Curative”. For the same molecule, the long term survivors (ip P388 leukemia) was 2/6, the “Long-Term Survivors” value (ip P388 leukemia; 15 mg/kg) was 4/6 and the “Increase in lifespan (ILS)” value (ip P388 leukemia; 30 mg/kg) was “toxic”. The ILS (iv L1210 leukemia; 3.2 mg/kg) was 50%, the “Increase in lifespan (ILS)” value (iv L1210 leukemia; 3.2 mg/kg) was 57% and the ILS (iv L1210 leukemia; 5.4 mg/kg) was 67%. The “Increase in lifespan (ILS)” value (iv L1210 leukemia; 5.4 mg/kg) was 93%, the ILS (iv L1210 leukemia; 9 mg/kg) was 83% and the “Increase in lifespan (ILS)” value (iv L1210 leukemia; 9 mg/kg) was 136%. The “Increase in lifespan (ILS)” value (iv L1210 leukemia; 15 mg/kg) was 171%, the “Long-Term Survivors” value (iv L1210 leukemia; 15 mg/kg) was 1/6 and the ILS (iv L1210 leukemia; 25 mg/kg) was “toxic”. For the same molecule, the “Increase in lifespan (ILS)” value (iv L1210 leukemia; 25 mg/kg) was “toxic”, the “Increase in Lifespan (ILS) or Inhibition” value (iv L1210 leukemia; iv) was “Curative” and the “Long-Term Survivors” value (iv L1210 leukemia; iv, 1.3 mg/kg) was 2/7. For the same molecule, the “Long-Term Survivors” value (iv L1210 leukemia; iv, 2.2 mg/kg) was 1/7, the “Long-Term Survivors” value (iv L1210 leukemia; iv, 3.6 mg/kg) was 5/7 and the “Long-Term Survivors” value (iv L1210 leukemia; iv, 24 mg/kg) was 4/7.
